In US12240844B2 (Voronoi, Inc., priority 2019, dated 2025):

How the values were obtained:
LRRK2 = LRRK2 (Homo sapiens, UniProt Q5S007); assay: LRRK2 enzyme inhibition, ADP-Glo kinase assay; type: biochemical; set-up: purchased Invitrogen PR8604B
Procedure, shortened: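 Purified human LRRK2 (25 ng) in 40 mM Tris-HCl pH7.4, 20 mM MgCl2, 0.5 mg/ml BSA, 50 μM DTT with 10 μM ATP and substrate ([…]), 2 h at 25° C. Final compound 50 to 0.000001024 μM, 12-point dilution. ADP-Glo luminescence vs solvent control; IC50 (nM).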

[1] = target: T1, human GST-DYRK1A (full length) (Homo sapiens, UniProt Q13627); assay: GST-DYRK1A enzyme inhibition, ADP-Glo kinase assay; type: biochemical; settings: read-out: DYRK1 IC50
T1 construct: purified human GST-DYRK1A (full length, Thermo scientifics) enzyme; GST; purchased Thermo scientifics
Procedure, shortened: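 Full-length human GST-DYRK1A (10 ng) incubated with 10 uM ATP and specific substrate for 1 h at 25° C in 40 mM Tris-HCl pH 7.4, 20 mM MgCl2, 0.5 mg/mL BSA, 50 uM DTT. ADP formation read by ADP-Glo luminescence; IC50 (nM) versus solvent control, triplicate.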

LRRK2 (G2019S) = LRRK2 (G2019S) (Homo sapiens, UniProt Q5S007, G2019S); assay: LRRK2 G2019S enzyme inhibition, ADP-Glo kinase assay; type: biochemical; set-up: purchased SignalChem L10-12GG
Sequence of LRRK2 (G2019S) (Q5S007 970-2527 G2019S limits assumed): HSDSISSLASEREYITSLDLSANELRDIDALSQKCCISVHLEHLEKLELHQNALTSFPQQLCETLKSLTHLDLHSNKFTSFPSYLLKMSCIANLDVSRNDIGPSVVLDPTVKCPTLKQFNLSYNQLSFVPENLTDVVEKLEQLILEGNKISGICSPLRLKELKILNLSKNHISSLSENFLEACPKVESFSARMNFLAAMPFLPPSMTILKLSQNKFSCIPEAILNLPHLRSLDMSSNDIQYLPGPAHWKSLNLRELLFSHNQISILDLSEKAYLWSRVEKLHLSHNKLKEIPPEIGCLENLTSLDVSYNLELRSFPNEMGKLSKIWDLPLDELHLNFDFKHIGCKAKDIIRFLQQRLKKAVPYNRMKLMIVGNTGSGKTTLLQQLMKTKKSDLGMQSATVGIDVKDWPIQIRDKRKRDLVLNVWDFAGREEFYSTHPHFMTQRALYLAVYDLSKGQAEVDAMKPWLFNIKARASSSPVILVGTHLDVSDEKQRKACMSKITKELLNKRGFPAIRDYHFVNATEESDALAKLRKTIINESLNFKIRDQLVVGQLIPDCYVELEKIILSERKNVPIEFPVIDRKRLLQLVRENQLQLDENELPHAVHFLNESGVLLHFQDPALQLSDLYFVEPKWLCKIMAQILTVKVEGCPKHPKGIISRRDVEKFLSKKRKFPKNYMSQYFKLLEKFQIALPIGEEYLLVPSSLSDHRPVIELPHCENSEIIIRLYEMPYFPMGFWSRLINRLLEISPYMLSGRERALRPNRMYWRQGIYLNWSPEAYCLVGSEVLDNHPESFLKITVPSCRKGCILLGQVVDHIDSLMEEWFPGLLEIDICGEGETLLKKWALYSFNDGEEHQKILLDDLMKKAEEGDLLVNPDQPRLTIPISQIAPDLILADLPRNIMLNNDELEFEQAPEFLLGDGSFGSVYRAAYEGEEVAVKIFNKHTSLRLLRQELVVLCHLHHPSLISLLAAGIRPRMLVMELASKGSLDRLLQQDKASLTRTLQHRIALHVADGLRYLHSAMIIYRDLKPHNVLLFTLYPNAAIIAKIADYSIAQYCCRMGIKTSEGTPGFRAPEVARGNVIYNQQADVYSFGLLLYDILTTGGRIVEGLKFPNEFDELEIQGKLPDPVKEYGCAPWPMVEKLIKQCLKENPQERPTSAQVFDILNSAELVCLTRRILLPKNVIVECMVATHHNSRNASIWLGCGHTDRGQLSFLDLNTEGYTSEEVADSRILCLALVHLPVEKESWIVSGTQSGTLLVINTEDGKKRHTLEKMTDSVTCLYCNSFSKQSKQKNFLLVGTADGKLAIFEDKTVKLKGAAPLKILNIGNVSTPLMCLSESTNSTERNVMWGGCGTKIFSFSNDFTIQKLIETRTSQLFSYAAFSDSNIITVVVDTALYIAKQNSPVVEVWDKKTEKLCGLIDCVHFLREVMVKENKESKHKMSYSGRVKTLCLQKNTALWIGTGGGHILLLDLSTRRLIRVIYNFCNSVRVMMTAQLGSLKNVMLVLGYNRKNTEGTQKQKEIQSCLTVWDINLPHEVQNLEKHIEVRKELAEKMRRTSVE
Procedure, shortened: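 Purified human LRRK2 G2019S (16 ng) with 25 μM ATP and 0.2 μg substrate, 2 h at 25° C in 40 mM Tris-HCl pH 7.4, 20 mM MgCl2, 0.5 mg/ml BSA, 50 μM DTT; compound at 12 final concentrations from 50 μM downward. ADP-Glo luminescence versus solvent control gave IC50 (nM).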

human GST-CLK1 (129-end) = target: T2, human GST-CLK1 (129-end) (Homo sapiens, UniProt P49759); assay: GST-CLK1 enzyme inhibition, ADP-Glo kinase assay; type: biochemical; settings: ATP 10 uM
T2 construct: purified human GST-CLK1 (129-end, Signalchem) enzyme; GST; purchased Signalchem
T2 sequence (P49759 129-484 limits assumed): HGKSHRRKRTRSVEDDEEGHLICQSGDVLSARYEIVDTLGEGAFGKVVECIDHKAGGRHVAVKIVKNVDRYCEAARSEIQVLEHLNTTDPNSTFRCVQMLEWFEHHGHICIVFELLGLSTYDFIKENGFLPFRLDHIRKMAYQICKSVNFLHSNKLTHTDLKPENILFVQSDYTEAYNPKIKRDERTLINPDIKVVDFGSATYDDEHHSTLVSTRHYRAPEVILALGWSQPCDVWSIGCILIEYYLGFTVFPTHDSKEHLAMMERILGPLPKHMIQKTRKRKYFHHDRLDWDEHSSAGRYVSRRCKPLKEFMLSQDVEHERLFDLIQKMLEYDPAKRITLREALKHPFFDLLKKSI
Procedure, shortened: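 GST-CLK1 (129-end, 3 ng) reacted with 10 uM ATP and substrate in 40 mM Tris-HCl pH 7.4, 20 mM MgCl2, 0.5 mg/mL BSA, 50 uM DTT, 1 h at 25° C. ADP-Glo luminescence normalised to solvent control; IC50 from triplicate data.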

MDA-MB-468 cell line = assay: MDA-MB-468 cancer cell proliferation inhibition (Cell Titer-Glo); type: cell-based; settings: Homo sapiens, MDA-MB-468 triple-negative breast cancer cell line, 72 hours
Method: In order to evaluate the cancer cell proliferation inhibitory activity of the compounds of the present invention, the following experiments were performed.
To evaluate the cancer cell proliferation inhibitory effect, the cell growth rate analysis was performed while culturing MDA-MB-231 cell line (Korean Cell Line Bank #30026) and MDA-MB-468 cell line as the triple-negative breast cancer cell line, and SHP-77 (ATCC #CRL-2195) as the small cell lung cancer cell line in DMEM (HyClone #SH30243) and RPMI medium (HyClone #SH3027.01), respectively. More specifically, the cell lines were each plated at 2000 cells/100 μl in each well of a 96-well flat-bottom plate (coming #3903), and then the example compounds having eleven concentrations which were diluted by ⅓ so that the final concentrations were 10.000000, 3.333333, 1.111111, 0.370370, 0.123457, 0.041152, 0.013717, 0.004572, 0.001524, 0.000508 and 0.000169 μM were treated. After 72 hours, 100 μl of Cell Titer-Glo (Promega G7573) was treated, incubated at RT for 10 minutes, and then luminescence was measured using a microplate reader. The measured luminescence degree was calculated as GI50 using Prism (version 8.2 GraphPad) software.
In the table below, the following designations were used for the evaluation of proliferation inhibitory activity.

SHP-77 = SHP-77 cancer cell proliferation inhibition (Cell Titer-Glo); type: cell-based; settings: Homo sapiens, SHP77, SHP-77 small cell lung cancer cell line, 72 hours
Procedure, shortened: (§1)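 GI50 comes from CellTiter-Glo luminescence, read 10 min after reagent addition at RT, following 72 h compound treatment. Eleven concentrations were used (⅓ steps, highest 10 μM final) on 2000 cells/well. MDA-MB-231 and MDA-MB-468 were grown in DMEM, SHP-77 in RPMI.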

MDA-MB-231 cell line = assay: MDA-MB-231 cancer cell proliferation inhibition (Cell Titer-Glo); type: cell-based; settings: Homo sapiens, MDA-MB-231 triple-negative breast cancer cell line, 72 hours
Procedure, shortened: as §1

human DYRK1A and Tau = assay: Tau phosphorylation inhibition, ClariCELL Kinase Cell-Based Assay (Carnabio)
Procedure, shortened: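 HEK293 cells transiently expressing human DYRK1A and Tau were exposed to compound, then lysed. Released Tau was captured on plate and its phosphorylation quantified by ELISA with a phospho-Tau-specific antibody.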

[2] = target: T3, LRRK2, LRRK2 (G2019S), DYRK1, CLK1 and TTK kinases (Homo sapiens, UniProt P49759); assay: Enzyme IC50 by Kinase HotSpot service (Reaction Biology Corporation), values marked with *; type: biochemical; settings: CLK1, ATP 10 uM
T3 construct: CLK1 IC50 (marked with *); other: CLK1; Kinase HotSpot service (Reaction Biology), ATP 10 uM
T3 sequence (P49759 whole entry, stated change not applied): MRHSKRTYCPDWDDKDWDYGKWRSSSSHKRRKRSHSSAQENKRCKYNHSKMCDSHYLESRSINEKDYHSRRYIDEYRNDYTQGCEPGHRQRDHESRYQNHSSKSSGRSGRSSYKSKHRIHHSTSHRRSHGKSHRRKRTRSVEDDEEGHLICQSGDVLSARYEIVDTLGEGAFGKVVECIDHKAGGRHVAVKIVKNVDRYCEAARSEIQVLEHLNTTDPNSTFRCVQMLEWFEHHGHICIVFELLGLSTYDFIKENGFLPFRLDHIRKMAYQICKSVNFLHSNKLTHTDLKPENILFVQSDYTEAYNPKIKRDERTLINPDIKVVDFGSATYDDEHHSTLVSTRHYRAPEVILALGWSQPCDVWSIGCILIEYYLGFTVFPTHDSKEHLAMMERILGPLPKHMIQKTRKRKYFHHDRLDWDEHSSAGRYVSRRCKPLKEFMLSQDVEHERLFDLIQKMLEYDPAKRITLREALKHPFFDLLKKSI
Method: (§2) Meanwhile, the enzyme IC50 measurement for some compounds was performed using Kinase HotSpot service (Reaction Biology Corporation); during the test, the ATP concentration was 10 uM, where all were conducted under the same condition; and the concentration of the compound was measured by giving a 3-fold concentration gradient with the highest concentration of […], where the values measured using Kinase HotSpot service (Reaction Biology Corporation) were marked with “*”.
(§3) All experimental methods were performed as provided in Kinase HotSpot Customer Protocol (http://www.reactionbiology.com//Kinase_Assay_Protocol).
(§4) In the table below, the following designations were used for the evaluation of enzyme inhibitory ability.

[3] = target: T4, LRRK2, LRRK2 (G2019S), DYRK1, CLK1 and TTK kinases (Homo sapiens, UniProt Q5S007); assay: as above; type: biochemical; settings: LRRK2, ATP 10 uM
T4 construct: LRRK2 IC50 (marked with *); other: LRRK2; Kinase HotSpot service (Reaction Biology), ATP 10 uM
T4 sequence (Q5S007 whole entry G2019S): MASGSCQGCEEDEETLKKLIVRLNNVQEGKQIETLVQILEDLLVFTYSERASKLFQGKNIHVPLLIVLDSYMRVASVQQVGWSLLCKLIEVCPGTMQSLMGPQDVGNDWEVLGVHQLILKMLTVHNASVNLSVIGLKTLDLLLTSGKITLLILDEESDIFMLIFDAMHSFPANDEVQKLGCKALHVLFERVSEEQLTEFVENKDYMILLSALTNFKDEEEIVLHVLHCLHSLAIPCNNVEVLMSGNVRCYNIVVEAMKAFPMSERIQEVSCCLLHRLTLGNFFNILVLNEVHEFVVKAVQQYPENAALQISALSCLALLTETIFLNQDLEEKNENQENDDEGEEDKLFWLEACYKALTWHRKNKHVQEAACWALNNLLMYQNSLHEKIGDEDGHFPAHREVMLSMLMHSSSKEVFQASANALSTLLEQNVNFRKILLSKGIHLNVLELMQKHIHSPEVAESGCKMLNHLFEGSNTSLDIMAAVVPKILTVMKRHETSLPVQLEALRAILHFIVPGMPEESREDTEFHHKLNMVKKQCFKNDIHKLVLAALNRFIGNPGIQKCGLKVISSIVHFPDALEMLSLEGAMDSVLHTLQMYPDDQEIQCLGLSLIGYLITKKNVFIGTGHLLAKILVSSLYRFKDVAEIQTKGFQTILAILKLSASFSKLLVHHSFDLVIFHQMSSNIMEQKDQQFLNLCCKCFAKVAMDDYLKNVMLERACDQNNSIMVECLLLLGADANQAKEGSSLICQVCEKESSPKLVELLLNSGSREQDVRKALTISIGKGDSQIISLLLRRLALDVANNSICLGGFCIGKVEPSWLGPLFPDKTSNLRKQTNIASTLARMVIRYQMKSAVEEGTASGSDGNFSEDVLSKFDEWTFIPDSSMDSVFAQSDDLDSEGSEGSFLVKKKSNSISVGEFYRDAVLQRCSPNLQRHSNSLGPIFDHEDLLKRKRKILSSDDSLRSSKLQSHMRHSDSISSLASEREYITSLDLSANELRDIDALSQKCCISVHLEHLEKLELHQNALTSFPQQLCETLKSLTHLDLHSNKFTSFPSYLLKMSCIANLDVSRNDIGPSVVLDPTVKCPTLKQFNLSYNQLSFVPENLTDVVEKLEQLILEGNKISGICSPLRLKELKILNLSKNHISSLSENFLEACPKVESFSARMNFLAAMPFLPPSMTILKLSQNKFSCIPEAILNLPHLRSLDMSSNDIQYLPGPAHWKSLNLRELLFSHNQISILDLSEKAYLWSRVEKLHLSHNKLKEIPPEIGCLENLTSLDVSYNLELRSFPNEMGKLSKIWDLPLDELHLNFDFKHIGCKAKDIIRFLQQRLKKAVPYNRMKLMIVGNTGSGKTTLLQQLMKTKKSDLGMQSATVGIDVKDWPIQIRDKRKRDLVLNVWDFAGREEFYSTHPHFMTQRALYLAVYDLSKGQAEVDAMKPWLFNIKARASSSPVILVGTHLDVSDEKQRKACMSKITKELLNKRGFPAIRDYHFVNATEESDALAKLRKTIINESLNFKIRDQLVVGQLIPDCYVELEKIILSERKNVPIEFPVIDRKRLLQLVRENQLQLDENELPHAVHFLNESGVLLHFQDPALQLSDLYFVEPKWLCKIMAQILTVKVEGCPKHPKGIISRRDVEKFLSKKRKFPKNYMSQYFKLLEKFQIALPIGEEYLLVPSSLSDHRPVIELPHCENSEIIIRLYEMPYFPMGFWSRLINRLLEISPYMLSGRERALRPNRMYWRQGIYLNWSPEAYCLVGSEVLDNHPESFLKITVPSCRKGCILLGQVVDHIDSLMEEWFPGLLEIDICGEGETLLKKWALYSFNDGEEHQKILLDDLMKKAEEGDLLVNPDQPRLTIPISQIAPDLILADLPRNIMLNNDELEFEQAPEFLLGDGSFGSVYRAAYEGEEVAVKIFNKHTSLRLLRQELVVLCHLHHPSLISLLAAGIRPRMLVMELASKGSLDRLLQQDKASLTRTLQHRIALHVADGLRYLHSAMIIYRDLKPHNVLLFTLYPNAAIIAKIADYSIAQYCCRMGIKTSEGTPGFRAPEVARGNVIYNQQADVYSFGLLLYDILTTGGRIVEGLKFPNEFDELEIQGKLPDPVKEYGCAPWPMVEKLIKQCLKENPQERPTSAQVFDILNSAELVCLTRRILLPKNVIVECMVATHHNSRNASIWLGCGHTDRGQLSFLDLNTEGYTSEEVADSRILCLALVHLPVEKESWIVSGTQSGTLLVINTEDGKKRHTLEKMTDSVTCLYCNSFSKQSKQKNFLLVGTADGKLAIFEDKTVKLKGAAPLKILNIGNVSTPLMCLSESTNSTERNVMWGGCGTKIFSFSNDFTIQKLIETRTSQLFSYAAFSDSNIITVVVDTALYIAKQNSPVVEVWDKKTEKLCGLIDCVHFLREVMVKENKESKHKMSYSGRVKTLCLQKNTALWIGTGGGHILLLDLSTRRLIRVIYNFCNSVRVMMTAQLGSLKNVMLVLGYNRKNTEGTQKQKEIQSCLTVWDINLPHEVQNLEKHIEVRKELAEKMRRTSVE
Method: as §2, §3, §4

[4] = target: T5, LRRK2, LRRK2 (G2019S), DYRK1, CLK1 and TTK kinases (Homo sapiens, UniProt Q13627); assay: as above; type: biochemical; settings: DYRK1, ATP 10 uM
T5 construct: other: DYRK1; Kinase HotSpot service (Reaction Biology), ATP 10 uM
Method: as §2, §3, §4

TTK = target: T6, TTK (Homo sapiens, UniProt P33981); assay: TTK enzyme inhibition, ADP-Glo kinase assay; type: biochemical; set-up: purchased Signalchem T20-10G; settings: ATP 5 μM
T6 sequence (P33981 1-857): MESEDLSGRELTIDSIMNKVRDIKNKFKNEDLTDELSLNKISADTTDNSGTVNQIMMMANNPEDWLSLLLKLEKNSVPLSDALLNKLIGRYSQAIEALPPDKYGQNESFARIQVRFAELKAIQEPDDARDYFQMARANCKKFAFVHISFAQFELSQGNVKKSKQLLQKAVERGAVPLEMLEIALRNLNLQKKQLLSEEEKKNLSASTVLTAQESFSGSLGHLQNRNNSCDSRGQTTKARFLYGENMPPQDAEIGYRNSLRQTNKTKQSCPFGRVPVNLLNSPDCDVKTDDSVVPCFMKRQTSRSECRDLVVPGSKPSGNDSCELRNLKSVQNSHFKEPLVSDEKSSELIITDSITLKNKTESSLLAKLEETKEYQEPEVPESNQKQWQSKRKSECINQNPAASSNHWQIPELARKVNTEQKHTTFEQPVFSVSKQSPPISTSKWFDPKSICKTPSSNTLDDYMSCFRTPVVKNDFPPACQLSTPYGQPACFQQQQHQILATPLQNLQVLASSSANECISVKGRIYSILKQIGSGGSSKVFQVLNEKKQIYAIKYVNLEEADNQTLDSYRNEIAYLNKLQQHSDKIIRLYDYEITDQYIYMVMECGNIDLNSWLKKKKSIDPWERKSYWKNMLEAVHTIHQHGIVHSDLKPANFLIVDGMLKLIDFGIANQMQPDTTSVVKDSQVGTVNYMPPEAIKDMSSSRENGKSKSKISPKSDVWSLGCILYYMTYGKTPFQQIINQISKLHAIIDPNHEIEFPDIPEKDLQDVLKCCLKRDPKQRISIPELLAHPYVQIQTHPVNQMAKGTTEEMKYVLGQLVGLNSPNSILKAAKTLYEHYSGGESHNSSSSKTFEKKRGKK
Method: In order to evaluate the inhibitory activity of the compounds according to the present invention on LRRK2, LRRK2 (G2019S), DYRK1, CLK1 and TTK kinases, the following experiment was performed.
Example compounds were reacted with the purified human TTK (Signalchem #T20-10G) enzyme to evaluate the enzyme inhibitory ability as follows. The reaction buffer was used as the composition of 40 mM Tris-HCl pH7.4, 20 mM MgCl2, 0.1 mg/ml BSA (5× kinase buffer, Signalchem #K03-09) and 50 μM DTT (Signalchem #D86-09B), and the reaction of all test materials was performed on the reaction buffer. The compound was diluted with 10 mM DMSO stock in […] by a serial dilution method, and the enzyme activity was measured at the final compound concentrations of 1, 0.333333, 0.111111, 0.037037, 0.012346, 0.004115, 0.001372, 0.000457, 0.000152, 0.000051 and 0.000017 μM. In the test, the human TTK (7.5 ng) enzyme was reacted with the purified ATP (5 μM, Promega #V6930) and an MBP enzyme substrate (0.2 μg, Signalchem M42-51N) at 25° C. for 4 hours, and then the enzyme activity was identified using the in vitro ADP-Glo™ kinase assay (Promega #V6930). The enzyme activity reaction liquid, an ADP-Glo reaction liquid and an enzyme potency detection solution were reacted in a ratio of 2:2:1, and the degree of inhibition of enzyme activity was measured by luminescence. The degree of inhibition of enzyme activity according to the treatment concentrations of the respective compounds was calculated based on the luminescence degree of the enzyme activity of a solvent control group that was not treated with the compound, where the concentration of each compound to inhibit enzyme activity inhibition by 50% was determined as an IC50 (nM) value and obtained using Prism (Version 8.2, GraphPad) software.
as §4

Sequence of LRRK2 (Q5S007 970-2527 limits assumed): as the sequence (Q5S007 970-2527 G2019S limits assumed) above, with S1050G counted along it

IC50 (LRRK2) | IC50 [1] | IC50 (LRRK2 (G2019S)) | IC50 (human GST-CLK1 (129-end)) | GI50 (MDA-MB-468 cell line) | GI50 (SHP-77) | GI50 (MDA-MB-231 cell line) | IC50 [2] | IC50 [3] | IC50 [4] | IC50 (TTK) | SMILES | inhibition at 0.25 µM (human DYRK1A and Tau) | inhibition at 0.5 µM (human DYRK1A and Tau) | inhibition at 1 µM (human DYRK1A and Tau)
< 100 nM | < 100 nM | < 100 nM | < 100 nM | 101 to 300 nM |  |  |  |  |  |  | CNc1cc(Nc2ccc(C(=O)N3CCOCC3)c3c2OCCO3)nc2[nH]cc(C(F)(F)F)c12 [Example 152, (8-((4-(methylamino)-3-(trifluoromethyl)-1H-pyrrolo[2,3-b]pyridin-6-yl)amino)-2,3-dihydrobenzo [b] [1,4]dioxin-5-yl)(morpholino) methanone] |  |  | 
 |  | 301 to 1000 nM |  |  | 301 to 1000 nM | 301 to 1000 nM | < 100 nM | < 100 nM | < 100 nM |  | COc1cc(S(=O)(=O)N2CCC(N3C[C@@H]4C[C@H]3CO4)CC2)ccc1Nc1cc(C2CC2)c2c(C(F)(F)F)c[nH]c2n1 [Example 240, N-(4-((4-((1S,4S)-2-oxa-5-azabicyclo[2.2.1]heptan-5-yl)piperidin-1-yl)sulfonyl)-2-methoxyphenyl)-4-cyclopropyl-3-(trifluoromethyl)-1H-pyrrolo[2,3-b]pyridin-6-amine] | 8.9% | 16.5% | 36.3%
 |  | 301 to 1000 nM |  |  | 301 to 1000 nM | 301 to 1000 nM | < 100 nM | < 100 nM | < 100 nM |  | COc1cc(S(=O)(=O)N2CCC(N3C[C@H]4C[C@@H]3CO4)CC2)ccc1Nc1cc(C2CC2)c2c(C(F)(F)F)c[nH]c2n1 [Example 239, N-(4-((4-((1R,4R)-2-oxa-5-azabicyclo [2.2.1]heptan-5-yl)piperidin-1-yl)sulfonyl)-2-methoxyphenyl)-4-cyclopropyl-3-(trifluoromethyl)-1H-pyrrolo[2,3-b]pyridin-6-amine] | 22% | 50.9% | 71.2%
 |  |  | 301 to 1000 nM |  |  |  |  |  | < 100 nM | < 100 nM | O=C(c1ccc(Nc2cc(C3CC3)c3c(C(F)(F)F)c[nH]c3n2)c2c1OCCO2)N1CCN(C2COC2)CC1 [Example 101, (8-((4-cyclopropyl-3-(trifluoromethyl)-1H-pyrrolo[2,3-b]pyridin-6-yl)amino)-2,3-dihydrobenzo[b] [1,4]dioxin-5-yl)(4-(oxetan-3-yl)piperazin-1-yl)methanone] | 9.9% | 11.2% | 20.7%
 | 301 to 1000 nM |  | 301 to 1000 nM | 51 to 100 nM |  |  |  |  |  |  | N#Cc1c[nH]c2nc(Nc3ccc(C(=O)N4CCOCC4)c4c3OCCO4)cc(NC3CCCCC3)c12 [Example 150, N^4-(cyclohexylamino)-N^6-((8-(morpholine-4-carbonyl)-2,3-dihydrobenzo [b] [1,4]dioxin-5-yl)amino)-1H-pyrrolo[2,3-b]pyridine-3-carbonitrile] |  |  | 
 | 301 to 1000 nM |  | 301 to 1000 nM | 101 to 300 nM |  |  |  |  |  |  | N#Cc1c[nH]c2nc(Nc3ccc(C(=O)N4CCC(N5CCOCC5)CC4)c4c3OCCO4)cc(NC3CCCCC3)c12 [Example 149, 4-(cyclohexylamino)-6-((8-(4-morpholinopiperidine-1-carbonyl)-2,3-dihydrobenzo [b] [1,4]dioxin-5-yl)amino)-1H-pyrrolo[2,3-b]pyridine-3-carbonitrile] |  |  | 
